This note sets out measurements from article PMC8298633, “Cannabis constituents interact at the drug efflux pump BCRP to markedly increase plasma cannabidiolic acid concentrations” (Scientific Reports, 2021).

Entries after “also recorded” stand apart in the source; their conditions may differ.

Data set [1] in a line: Pharmacokinetic study: plasma cannabinoids after single oral gavage of full-spectrum cannabis extract or individual cannabinoid. As to conditions: for Detection in plasma following oral administration of the full-spectrum extract / AUC / Cmax / tmax / Total plasma exposure in full-spectrum extract relative to individual compound, fold lower / t1/2: mouse plasma; for Detection in plasma following oral administration of the full-spectrum extract: single oral dose of extract; for Total plasma exposure in full-spectrum extract relative to individual compound, fold lower: equivalent doses. How it is done: Drugs were administered by oral gavage in a volume of 5 mL/kg. Wildtype male and female mice (postnatal day 21–28, P21-28) received a single oral gavage of either the full-spectrum cannabis extract or an individual cannabinoid. Cannabinoid doses within the full-spectrum extract or as an individual cannabinoid were as follows in mg/kg: CBDA and Δ^9-THCA, 50; CBD, 25; Δ^9-THC, 15; CBC, 9; CBDVA and CBGA, 7; CBN, 2.5; CBG, 1.5; CBDV and Δ^9-THCV, < 1 (Fig. 1a). At selected time points (15–240 min), mice were anesthetized with isoflurane and whole blood was collected by cardiac puncture. Plasma was isolated by centrifugation (9000 g for 10 min, 4 °C) and stored at − 80 °C until assayed.
Concentrations of cannabinoids in plasma samples were quantified as described previously, [24], [58]. […] The organic layer was isolated by centrifugation (4000 g for 10 min) and evaporated to dryness with N2. Samples were reconstituted in acetonitrile and 0.1% formic acid in water (1:3.3, v/v) for supported-liquid extraction (SLE) with methyl tert-butyl ether (MTBE) using Biotage Isolute SLE+ columns (Uppsala, SWE). […] Quantification of cannabinoids was achieved by comparing samples to standards prepared with known amounts of drug.
Plasma concentrations at each time point were averaged and pharmacokinetic parameters were calculated by noncompartmental analysis. Elimination rate constants were determined by linear regression of the terminal component of the concentration–time curve using GraphPad Prism 8.2 (La Jolla, USA). The log-linear trapezoidal method was used to calculated total drug exposure (area under concentration–time curve) using equations described previously.

A further data set concerns the target P-glycoprotein (Homo sapiens, UniProt P08183). Description: Bidirectional transwell substrate assay, MDCK cells expressing P-glycoprotein. As to conditions: for P (A > B): apical to basolateral; for P (B > A): basolateral to apical; for P-glycoprotein substrate status: human P-glycoprotein MDCK cells vs wildtype; for efflux ratio at 240 min, 10 µM: human, MDCK-MDR1, r (transport efflux ratio). How it is done:
(§1) We first aimed to determine whether the cannabinoids found in the full-spectrum cannabis extract were substrates of P-glycoprotein and BCRP by using MDCK cells expressing human P-glycoprotein or BCRP in vitro. Transwell assays were conducted to assess bidirectional transport of the cannabinoids detected in plasma following administration of the full-spectrum cannabis extract (CBD, CBDA, CBDVA, CBGA, Δ^9-THC and Δ^9-THCA), including the respective neutral compounds (CBDV and CBG) across wildtype, BCRP and P-glycoprotein MDCK cell monolayers. […] BCRP and P-glycoprotein preferentially transport substrates in the B > A direction.
(§2) Media in the donor chamber was then replaced with that containing 10 µM of an individual cannabinoid in the presence of either vehicle or inhibitor and returned to 37 °C. Aliquots (25 or 50 µL) were removed from the accepter chamber at 60, 120, 180 and 240 min.
(§3) Cannabinoids were analyzed as described above.

Data set [2] addresses T1, BCRP (Homo sapiens, UniProt Q9UNQ0).
T1 sequence (Q9UNQ0 1-655): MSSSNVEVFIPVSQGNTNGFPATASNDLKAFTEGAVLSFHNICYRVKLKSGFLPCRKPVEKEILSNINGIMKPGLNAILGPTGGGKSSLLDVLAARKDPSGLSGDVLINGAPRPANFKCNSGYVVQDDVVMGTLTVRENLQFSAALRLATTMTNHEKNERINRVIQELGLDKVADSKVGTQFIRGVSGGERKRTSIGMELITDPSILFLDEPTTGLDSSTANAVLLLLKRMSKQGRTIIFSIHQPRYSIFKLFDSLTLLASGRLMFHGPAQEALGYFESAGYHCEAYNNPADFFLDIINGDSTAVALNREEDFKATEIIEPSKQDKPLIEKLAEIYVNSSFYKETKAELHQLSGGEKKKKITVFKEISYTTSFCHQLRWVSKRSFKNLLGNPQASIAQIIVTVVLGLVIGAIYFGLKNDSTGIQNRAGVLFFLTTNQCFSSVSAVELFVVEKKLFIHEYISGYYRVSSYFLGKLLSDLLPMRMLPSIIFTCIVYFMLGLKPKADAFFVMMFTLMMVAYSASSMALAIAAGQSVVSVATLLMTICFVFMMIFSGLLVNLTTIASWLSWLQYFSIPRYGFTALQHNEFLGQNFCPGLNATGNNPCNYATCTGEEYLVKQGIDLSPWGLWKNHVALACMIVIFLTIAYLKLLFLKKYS
Put plainly: Bidirectional transwell substrate assay, MDCK cells expressing BCRP (with or without elacridar). As to conditions: for P (A > B) / P (B > A) / efflux ratio at 240 min, 10 µM: BCRP MDCK cells, 10 µM cannabinoid; for P (A > B): apical to basolateral; for P (B > A): basolateral to apical; for BCRP substrate status: human BCRP MDCK cells vs wildtype, with elacridar control; for efflux ratio at 240 min, 10 µM: human, r (transport efflux ratio), substrate threshold 1.5. As for the experimental part:
as §1, §2, §3

Data set [3] in a line: Bidirectional transwell transport assay, wildtype MDCK cell monolayers. The following applies: dog, MDCK. How it is done:
as §1, §2, §3

Another data set deals with wildtype MDCK cells. The data set is described as above. The following applies: wildtype MDCK cells, 10 µM cannabinoid, apical to basolateral. How it is done:
as §1, §2, §3

Data set [4] addresses T1, BCRP. Description: Inhibition of BCRP-mediated transport of prazosin (transwell, BCRP MDCK cells). As to conditions: 10 µM, compared to vehicle.
[5] abbreviates: P-glycoprotein MDCK cells, 10 µM cannabinoid.
The mark [6] stands for this setting: P-glycoprotein MDCK cells, 10 µM cannabinoid, substrate threshold 2.5.
The mark [7] stands for this setting: oral, administered as individual cannabinoid, doses mg/kg: CBD 25, CBDA 50, CBDVA 7, THC 15, THCA 50.
The mark [8] stands for this setting: oral, administered in full-spectrum extract, doses mg/kg: CBD 25, CBDA 50, CBDVA 7, CBGA 7, THC 15, THCA 50.

Sequence of P-glycoprotein (P08183 whole entry): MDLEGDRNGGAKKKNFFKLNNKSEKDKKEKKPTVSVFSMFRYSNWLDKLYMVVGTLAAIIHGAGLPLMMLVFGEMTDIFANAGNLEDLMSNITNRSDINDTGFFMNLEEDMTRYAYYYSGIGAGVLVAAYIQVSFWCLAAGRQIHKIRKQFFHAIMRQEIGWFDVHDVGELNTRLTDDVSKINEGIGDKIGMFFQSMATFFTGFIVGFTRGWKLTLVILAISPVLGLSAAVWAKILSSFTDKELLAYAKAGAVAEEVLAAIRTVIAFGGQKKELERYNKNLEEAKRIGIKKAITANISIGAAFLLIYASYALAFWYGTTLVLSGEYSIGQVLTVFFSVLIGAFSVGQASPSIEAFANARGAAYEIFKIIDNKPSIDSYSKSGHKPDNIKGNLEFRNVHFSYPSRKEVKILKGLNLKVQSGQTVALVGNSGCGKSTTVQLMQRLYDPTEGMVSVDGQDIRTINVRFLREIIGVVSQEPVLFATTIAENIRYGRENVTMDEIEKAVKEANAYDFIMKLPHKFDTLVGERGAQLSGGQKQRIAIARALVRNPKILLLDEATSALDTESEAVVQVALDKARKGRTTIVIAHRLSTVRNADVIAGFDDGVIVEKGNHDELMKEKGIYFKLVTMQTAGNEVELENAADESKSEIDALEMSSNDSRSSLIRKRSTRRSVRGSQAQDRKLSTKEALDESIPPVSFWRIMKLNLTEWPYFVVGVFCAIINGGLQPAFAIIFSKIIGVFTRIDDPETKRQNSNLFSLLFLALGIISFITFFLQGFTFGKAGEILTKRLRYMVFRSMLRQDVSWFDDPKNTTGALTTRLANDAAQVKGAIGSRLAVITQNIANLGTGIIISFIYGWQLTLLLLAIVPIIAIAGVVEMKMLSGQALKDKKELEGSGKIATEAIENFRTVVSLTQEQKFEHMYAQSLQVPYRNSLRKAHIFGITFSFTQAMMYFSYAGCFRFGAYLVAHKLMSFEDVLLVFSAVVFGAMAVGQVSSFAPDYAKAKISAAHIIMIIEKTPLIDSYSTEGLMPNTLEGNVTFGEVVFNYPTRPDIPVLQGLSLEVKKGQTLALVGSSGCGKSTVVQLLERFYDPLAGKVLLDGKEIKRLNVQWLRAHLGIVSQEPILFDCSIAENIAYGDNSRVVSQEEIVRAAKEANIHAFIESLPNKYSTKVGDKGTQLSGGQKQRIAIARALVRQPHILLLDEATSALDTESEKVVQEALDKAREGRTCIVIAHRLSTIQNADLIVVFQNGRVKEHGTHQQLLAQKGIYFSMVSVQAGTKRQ

`CCCCCc1cc(O)c2c(c1)OC(C)(CCC=C(C)C)C=C2` (centres unmarked) [CBC]: the “Detection in plasma following oral administration of the full-spectrum extract” value (“Detection” below) in data set [1] was “not detected”.
As for `C=C(C)[C@@H]1CCC(C)=C[C@H]1c1c(O)cc(CCC)cc1O` [CBDV, cannabidivarin], the “Detection” value in data set [1] was “not detected”. For the same molecule, on P-glycoprotein (setting [5]), the “P (A > B)” value is recorded as 30 ± 8 × 10^−5 cm/s and the “P (B > A)” value is 34 ± 3 × 10^−5 cm/s. On P-glycoprotein, the P-glycoprotein substrate status result is “not substrates of either BCRP or P-glycoprotein”. Also, the efflux ratio at 240 min, 10 µM at P-glycoprotein (setting [6]) stood at 1.1 ± 0.3. Also, at BCRP [2], the “P (A > B)” value was 63 ± 14 × 10^−5 cm/s; the “P (B > A)” value is given as 90 ± 9 × 10^−5 cm/s; the BCRP substrate status result is given as “not considered a substrate of BCRP; also recorded: not substrates of either BCRP or P-glycoprotein”; the efflux ratio at 240 min, 10 µM stood at 1.4 ± 0.2. In data set [3], the Papp B→A at 240 min, 10 µM turned out to be 440 ± 50 ×10⁻⁶ cm/s and the efflux ratio at 240 min, 10 µM came out at 1 ± 0.2. Moreover, the “P (A > B)” value in the data set with wildtype MDCK cells is 43 ± 5 × 10^−5 cm/s.
For `CCCCCc1cc(O)c(C/C=C(\C)CCC=C(C)C)c(O)c1` [CBG, cannabigerol], the “Detection” value in data set [1] is “not detected”. Also, on P-glycoprotein (setting [5]), the “P (A > B)” value was 19 ± 5 × 10^−5 cm/s and the “P (B > A)” value is recorded as 14 ± 2 × 10^−5 cm/s. The P-glycoprotein substrate status result on P-glycoprotein was “not P-glycoprotein substrates”. The “Effect on BCRP-mediated transport of prazosin” value at BCRP [4] is “not prazosin transport”. Besides, on BCRP [2], the “P (A > B)” value was 47 ± 9 × 10^−5 cm/s; the “P (B > A)” value is 53 ± 10 × 10^−5 cm/s; the BCRP substrate status entry is on record as “weak substrates of BCRP”; the efflux ratio at 240 min, 10 µM turned out to be 1.1 ± 0.3. In data set [3], the Papp B→A at 240 min, 10 µM came out at 100 ± 30 ×10⁻⁶ cm/s and the efflux ratio at 240 min, 10 µM was 0.8 ± 0.5. Also, the “P (A > B)” value in the data set with wildtype MDCK cells is recorded as 12 ± 5 × 10^−5 cm/s.
As for `CCCCCc1cc(O)c(C/C=C(\C)CCC=C(C)C)c(O)c1C(=O)O` [CBGA, cannabigerolic acid], the AUC in data set [1] (both, mouse, plasma, po, 7 mg/kg, AUC (does not include terminal phase), administered as individual cannabinoid, CBGA 7 mg/kg) was 144000 ng·h/mL; in data set [1] (both, mouse, plasma, po, AUC, oral, administered in full-spectrum extract, doses mg/kg: CBD 25, CBDA 50, CBDVA 7, CBGA 7, THC 15, THCA 50) it was 86200 ng·h/mL. The Cmax in data set [1] (both, mouse, plasma, po, Cmax, oral, administered as individual cannabinoid, doses mg/kg: CBDA 50, CBDVA 7, CBGA 7) was 48000 ± 2000 ng/mL; in data set [1] (both, mouse, plasma, po, Cmax, oral, administered in full-spectrum extract, doses mg/kg: CBDA 50, CBDVA 7, CBGA 7), 12000 ± 1000 ng/mL. The molecule also gave a half-life in data set [1] (both, mouse, plasma, po, t1/2, mouse plasma, oral, administered in full-spectrum extract, doses mg/kg: CBD 25, CBDA 50, CBDVA 7, CBGA 7, THC 15, THCA 50) of 4.97 h. The tmax is 2 h in data set [1] (both, mouse, plasma, po, tmax, oral, administered as individual cannabinoid, doses mg/kg: CBD 25, CBDA 50, CBDVA 7, CBGA 7, THC 15, THCA 50) and at most 1 h in data set [1] (both, mouse, plasma, po, tmax, oral, administered in full-spectrum extract, doses mg/kg: CBD 25, CBDA 50, CBDVA 7, CBGA 7, THC 15, THCA 50). Moreover, in data set [1] (oral), the “Total plasma exposure in full-spectrum extract relative to individual compound, fold lower” value was 2–4 ×. For the same molecule, in data set [1], the “Detection” value is reported as “detected”. Besides, the “P (A > B)” value at P-glycoprotein (setting [5]) is given as 5 ± 2 × 10^−5 cm/s. Further, the “P (B > A)” value at P-glycoprotein (setting [5]) is 3 ± 1 × 10^−5 cm/s; on BCRP [2] it was 5 ± 1 × 10^−5 cm/s. Further, at P-glycoprotein, the P-glycoprotein substrate status entry was “not substrates of either BCRP or P-glycoprotein”. In addition, the efflux ratio at 240 min, 10 µM on P-glycoprotein (setting [6]) stood at 0.7 ± 0.5. The BCRP substrate status entry at BCRP [2] was “not substrates of either BCRP or P-glycoprotein”. The Papp B→A at 240 min, 10 µM in data set [3] turned out to be 10 ± 10 ×10⁻⁶ cm/s.
For `CCCCCc1cc(O)c2c(c1)OC(C)(C)c1ccc(C)cc1-2` [CBN, cannabinol], in data set [1], the “Detection” value is “not detected”.
In data set [1] (oral, administered as individual cannabinoid, doses mg/kg: CBD 25, CBDA 50, CBDVA 7, CBGA 7, THC 15, THCA 50), `CCCCCc1cc2c(c(O)c1C(=O)O)C1C=C(C)CCC1C(C)(C)O2` (centres unmarked) [Δ^9-THCA, Δ^9-tetrahydrocannabinolic acid] had a tmax of 0.5 h. In data set [1] (setting [7]), this molecule yielded an AUC of 2880 ng·h/mL and a t1/2 of 0.617 h. In addition, the Cmax in data set [1] (oral, administered as individual cannabinoid, doses mg/kg: CBD 25, THC 15, THCA 50) is recorded as 2094 ± 74 ng/mL. In addition, in data set [1] (setting [8]), the AUC came to 733 ng·h/mL, the t1/2 was found to be 0.767 h and the tmax came out at 0.75 h. Besides, the Cmax in data set [1] (oral, administered in full-spectrum extract, doses mg/kg: CBD 25, THC 15, THCA 50) was determined as 465 ± 64 ng/mL. The “Total plasma exposure in full-spectrum extract relative to individual compound, fold lower” value in data set [1] (oral) is 2–4 ×. In addition, the “Detection” value in data set [1] is reported as “detected”. In addition, at P-glycoprotein (setting [5]), the “P (A > B)” value is 17 ± 5 × 10^−5 cm/s and the “P (B > A)” value was 8 ± 3 × 10^−5 cm/s. In addition, the “r (transport efflux ratio)” value on P-glycoprotein (setting [6]) turned out to be 0.5 ± 0.4. The P-glycoprotein substrate status entry on P-glycoprotein was “not substrates of either BCRP or P-glycoprotein”. Further, on BCRP [2], the “P (B > A)” value is recorded as 6 ± 2 × 10^−5 cm/s and the BCRP substrate status entry was “not substrates of either BCRP or P-glycoprotein”.
For the molecule `CCCc1cc(O)c2c(c1)OC(C)(C)[C@@H]1CCC(C)=C[C@@H]21` [Δ^9-THCV, Δ^9-tetrahydrocannabivarin], in data set [1], the “Detection” value is on record as “not detected”.

Usually efflux ratio stands for the permeability from basolateral to apical divided by that in the opposite direction, in the common usage. Usually Papp B→A stands for the apparent permeability from the basolateral to the apical side of a cell layer. The AUC is concentration integrated over time. A low value points to less exposure. What is called Cmax is the highest concentration seen after dosing. By half-life is commonly meant how long it takes for the measured level to halve.
